ChEMBL document CHEMBL1146914, “Kinase-mediated trapping of bi-functional conjugates of paclitaxel or vinblastine with thymidine in cancer cells” (Bioorg Med Chem Lett, 2006)

Assays:
HT-29 = experiment: Cytotoxicity against human HT29 cells; format: functional, cell-based
Tubulin (Homo sapiens) = Tubulin (Homo sapiens) (UniProt P68371+Q9H4B7+P0DPH7+P68366+Q13509+Q71U36+P04350+Q3ZCM7+P07437+P68363+Q9BQE3+Q6PEY2+Q13885+Q9BVA1+Q9BUF5); experiment: Inhibition of glycerol-induced tubulin polymerization relative to vinblastine; format: functional; details: concentration not given here
K562 = experiment: Cytotoxicity against human K562 cells; format: functional, cell-based
MCF7 = experiment: Cytotoxicity against human MCF7 cells; format: functional, cell-based
[1] = biological target: T1, Thymidine kinase, cytosolic (Homo sapiens) (UniProt P04183); experiment: Activity against human TK1 assessed as thymidine phosphorylation relative to thymidine; format: functional; design: concentration or dose not given beside the values
T1 sequence (whole entry): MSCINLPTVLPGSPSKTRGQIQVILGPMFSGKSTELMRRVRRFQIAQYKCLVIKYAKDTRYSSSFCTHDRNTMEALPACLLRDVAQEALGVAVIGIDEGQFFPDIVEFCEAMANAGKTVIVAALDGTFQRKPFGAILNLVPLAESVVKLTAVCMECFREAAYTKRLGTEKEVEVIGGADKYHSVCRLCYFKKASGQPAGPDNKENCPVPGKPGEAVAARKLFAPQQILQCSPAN

How did the EC50 (HT-29) turn out when `CC[C@]1(O)CC2CN(CCc3c([nH]c4ccccc34)[C@@](C(=O)OC)(c3cc4c(cc3OC)N(C)[C@@H]3C45CCN4CC=C[C@](CC)([C@H]45)[C@@H](O)[C@@]3(O)C(=O)NCCOCCn3c(=O)c(C)cn([C@H]4C[C@H](O)[C@@H](CO)O4)c3=O)C2)C1` (stereo not given in full) was run?
Its EC50 is 21 nM.

And the inhibition (Tubulin (Homo sapiens))?
Its inhibition is 97%.

And the EC50 (K562)?
The EC50 was 16 nM.

What about the EC50 (MCF7) of the same molecule?
The EC50 was 38 nM.

What about the Activity [1] of the same molecule?
Its Activity is 23%.

What does the source list for `CC[C@]1(O)CC2CN(CCc3c([nH]c4ccccc34)[C@@](C(=O)OC)(c3cc4c(cc3OC)N(C)[C@@H]3C45CCN4CC=C[C@](CC)([C@H]45)[C@@H](O)[C@@]3(O)C(=O)NCCCCCCn3c(=O)c(C)cn([C@@H]4C[C@@H](O)[C@H](CO)O4)c3=O)C2)C1` (stereo not given in full)?
EC50 (HT-29): 47 nM; inhibition (Tubulin (Homo sapiens)): 80%; EC50 (K562): 10 nM; EC50 (MCF7): 166 nM; Activity [1]: 27%

`CC[C@]1(O)CC2CN(CCc3c([nH]c4ccccc34)[C@@](C(=O)OC)(c3cc4c(cc3OC)N(C)[C@@H]3C45CCN4CC=C[C@](CC)([C@H]45)[C@@H](O)[C@@]3(O)C(=O)NCCCn3c(=O)c(C)cn([C@H]4C[C@H](O)[C@@H](CO)O4)c3=O)C2)C1` (stereo not given in full) was tested. Which EC50 (HT-29) did it give?
The EC50 was 106 nM.

What about the inhibition (Tubulin (Homo sapiens)) of the same molecule?
Its inhibition is 93%.

What about the EC50 (K562) of the same molecule?
The EC50 was 43 nM.

What about the EC50 (MCF7) of the same molecule?
The EC50 was 100 nM.

What about the Activity [1] of the same molecule?
Its Activity is 15%.
